Experimental data: patent publication US6432880B1, “Substituted 2-phenylpyridines as herbicides” (BASF Aktiengesellschaft, priority 1999, dated 2002)

melting point [°C]	SMILES
132 to 133	CS(=O)(=O)Oc1cnc(-c2cc(O)c(Cl)cc2F)c(Cl)c1 [Ia.362, 2-(4-chloro-2-fluoro-5-hydroxyphenyl)-3-chloro-5-(methylsulfonyl-oxy) pyridine]
118 to 120	COc1cc(-c2ncc(OS(C)(=O)=O)cc2Cl)c(F)cc1Cl [Ia.363, 2-(4-chloro-2-fluoro-5-methoxyphenyl)-3-chloro-5-(methylsulfonyl-oxy)pyridine]
